Results as given in patent US9731013B2 (UNIVERSITY OF FLORIDA RESEARCH FOUNDATION, INC., priority 2008, dated 2017).

Experiments:
[1] = Radiofrequency (RF) heating of samples dissolved or suspended in water; assay type: physicochemical; details: RF 13.56 MHz, 500 W, 250 μL sample in water; for temperature rise (in words): up to five minutes
Experimental: FIG. 1 is a plot of the temperature rise of samples comprising functionalized fullerenes according to embodiments of the invention that are dissolved or suspended in water during irradiation with RF at 13.56 MHz and 500 W RF power over a period of five minutes.
FIG. 2 is a bar graph of the temperature rise of samples comprising functionalized fullerenes according to embodiments of the invention that are dissolved or suspended in water after irradiation with RF at 13.56 MHz and 500 W RF power for 30 seconds (left bars) and 60 seconds (right bars).
Heating of a volume of water by irradiation of fullerene comprising compounds was carried out using a radiofrequency (RF) heating system (Therm Med, LLC, Erie, Pa.) operating at 13.56 MHz and 500 W RF power. A volume of 250 μL of sample dissolved or suspended in water was pipetted into a cylindrical quartz cuvette for RF exposure. The cuvette was placed on a thin horizontal Teflon sample holder positioned at a depth of 7.6 cm from RF generator.

[2] = Water solubility observation of samples; assay type: physicochemical

temperature rise (in words) [1]	water solubility (in words) [2]	temperature rise in 5 minutes ([1]; 5 minutes) [°C]	Substance
Temperature rise was observed	–	–	Polyhydroxy fullerenes [PBU]
–	not water soluble	10	Gadofullerenes (Gd@C82) [GdF]
did not show a temperature rise	not water soluble	–	Pristine C60 [FN, reference compound]
